Results reported in PubChem BioAssay (NCI).
“And” between values parts separate entries of the source, which are not always exact repeats. Equal values may be shown once.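 These data come from cells grown in 96-well plates and exposed to compound for 48 hours at five concentrations. GI50 is the concentration that inhibits growth by half. The concentration for full growth arrest is given as TGI.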

Columns and labels:
Assay in all cases: NCI tumour cell line growth inhibition, 48 h
SK-MEL-5 melanoma = test system: SK-MEL-5 melanoma
HCT-15 colon = test system: HCT-15 colon
OVCAR-4 ovarian = test system: OVCAR-4 ovarian
EKVX NSCLC = test system: EKVX NSCLC
IGROV1 ovarian = test system: IGROV1 ovarian
HCT-116 colon = test system: HCT-116 colon
SNB-75 CNS = test system: SNB-75 CNS
HL-60(TB) leukemia = test system: HL-60(TB) leukemia
786-0 renal = test system: 786-0 renal
HOP-62 NSCLC = test system: HOP-62 NSCLC

Row | Compound | GI50 (SK-MEL-5 melanoma) [µM] | TGI (SK-MEL-5 melanoma) | GI50 (HCT-15 colon) | TGI (HCT-15 colon) | GI50 (OVCAR-4 ovarian) | TGI (OVCAR-4 ovarian) [µM] | GI50 (EKVX NSCLC) | TGI (EKVX NSCLC) [µM] | GI50 (IGROV1 ovarian) | TGI (IGROV1 ovarian) [µM] | GI50 (HCT-116 colon) [µM] | TGI (HCT-116 colon) | GI50 (SNB-75 CNS) [µM] | TGI (SNB-75 CNS) [µM] | GI50 (HL-60(TB) leukemia) [µM] | TGI (HL-60(TB) leukemia) [µM] | GI50 (786-0 renal) [µM] | TGI (786-0 renal) | GI50 (HOP-62 NSCLC) [µM] | TGI (HOP-62 NSCLC) [µM]
1 | COc1ccc(NC(=O)Nc2n[nH]c3ccccc23)cc1 | > 100 | > 100 µM | > 100 µM | > 100 µM | > 100 µM | > 100 | > 100 µM | > 100 | > 100 µM | > 100 | > 100 | > 100 µM | > 100 | > 100 | > 100 | > 100 | > 100 | > 100 µM | > 100 | > 100
2 | CCCCCCCCCCCCCCCC(=O)NCC(COP(=O)([O-])OCC[N+](C)(C)C)OCC (centres undefined) | – | 33.9 µM | – | 19.3 µM | – | 17.7 | – | 36.5 | – | 16 | – | 23.9 µM | – | 23 | – | – | – | 5.82 µM | – | 20.1
3 | CCOC(=O)CC1=Nc2ccccc2SC1 | – | > 100 µM | – | > 100 µM | – | > 100 | – | > 100 | – | > 100 | – | > 100 µM | – | > 100 | – | – | – | > 100 µM | – | > 100
4 | Cc1cc([C@@H](C)Nc2ccccc2C(=O)O)c2nc(N3CCOCC3)cc(=O)n2c1 | > 10 | > 10 µM | > 10 µM | > 10 µM | > 10 µM | > 10 | > 10 µM | > 10 | 1.85 µM | > 10 | 2.76 | > 10 µM | 0.43 | > 10 | 5.5 | > 10 | 1.23 | > 10 µM | > 10 | > 10
5 | COc1cc(/C=C\[N+](=O)[O-])ccc1O | 1.77 | 3.24 µM | 1.85 µM | 6.03 µM | 3.86 µM | 14.1 | 11.8 µM | 24.6 | 2.61 µM | 6.97 | 1.83 | 3.43 µM | 3.35 | 17.2 | 2.39 | 6.31 | 1.81 | 3.94 µM | 3.21 | 13.8
6 | CCCCCCCCCCCCC(=O)OC(c1cnco1)c1nc(C(O)CC(O)C(O)C(C)O)co1 (centres undefined) | 1.45 | 9.66 µM and 6.95 µM | – | > 100 µM | 2.02 µM | 91.5 | 6.56 µM | > 100 | 1.71 µM | > 100 | 0.459 | > 100 µM | 2.91 | 15.9 | 0.544 | 25.4 | 1.02 | > 100 µM | – | > 100
7 | O=C(Nc1cccc(-n2ccc3c(NC(=O)c4ccccc4)nccc32)c1)c1cccc(C(F)(F)F)c1 | 0.0341 | 0.152 µM | 0.0357 µM | – | 0.104 µM | > 67.7 | 0.0715 µM | > 100 | 0.0844 µM | > 46.9 | 0.0364 | 1.46 µM | – | – | 0.0343 | 0.653 | 0.0645 | 1.9 µM | 0.0543 | 16.5
8 | CCc1c2c(nc3cc4c(cc13)OCO4)-c1cc3c(c(=O)n1C2)COC(=O)[C@]3(O)CC | – | 0.0648 µM and 0.143 µM | 0.182 µM and 0.137 µM | > 100 µM | 0.323 µM and 1.27 µM | > 100 | 4.31 µM and 1.8 µM | > 100 | 0.33 µM and 0.39 µM | > 100 | 1.31 | > 100 µM | – | – | < 0.001 | – | – | > 100 µM | – | > 100
9 | CC1(C)N=C(N)N=C(N)N1c1ccc(CCCCc2ccc(S(=O)(=O)F)cc2)cc1 | 0.574 | 13.4 µM | 3.16 µM | > 100 µM | 8.23 µM | > 86.5 | – | – | 0.445 µM | 23.5 | 0.373 | 15.8 µM | 2.16 | 20.2 | 0.828 | 22.1 | 0.64 | 19.1 µM | 3.86 | 20.1
10 | N#Cc1c(NC(=O)c2cccc(C(F)(F)F)c2)sc2c1CCC(=O)C2 | 1.3 | 2.65 µM | 0.337 µM | 1.66 µM | 0.298 µM | 0.952 | 1.67 µM | 4.26 | 0.582 µM | 2.09 | 0.336 | 1.56 µM | 1.19 | 3.13 | 0.576 | 3.56 | 0.716 | 5.85 µM | 1.76 | > 26.4
11 | C[C@@H]1CC[C@H]2C(COCC3=C(C(F)(F)F)O[C@@H]4O[C@@]5(C)CC[C@H]6[C@H](C)CC[C@@H]3[C@@]46OO5)=C(C(F)(F)F)O[C@@H]3O[C@@]4(C)CC[C@@H]1[C@]32OO4 | 0.0109 | > 100 µM | < 0.01 µM | > 100 µM | 0.0251 µM | > 100 | 0.0333 µM | > 100 | – | > 100 | < 0.01 | > 100 µM | – | – | < 0.01 | > 100 | 0.182 | > 100 µM | – | –
12 | C1COCCN1.C1COCCN1.N.N.[Cl-].[Pt+2] | > 100 | > 100 µM | > 100 µM | > 100 µM | > 100 µM | > 100 | > 100 µM | > 100 | > 100 µM | > 100 | > 100 | > 100 µM | > 100 | > 100 | – | – | > 100 | > 100 µM | – | –
13 | O=c1cc(-c2cccc(F)c2)[nH]c2cc3c(cc12)OCO3 | 0.0639 | – | 0.29 µM | 12.1 µM and > 24.9 µM | – | > 68.1 | – | > 100 | – | > 57 | 0.22 | 2.91 µM and 15.7 µM | – | – | 0.201 | – | 0.346 | 75 µM and 17.7 µM | – | 21.3
14 | O=c1[nH]c2ccccc2cc1C(Cl)=C(Cl)Cl | – | – | – | – | – | > 100 | – | > 100 | – | > 100 | – | > 100 µM | – | > 100 | – | > 100 | – | > 100 µM | – | > 100
15 | CN=C(N)N/N=C(\c1ccccc1)c1ccc(Br)cc1 | 0.335 | 1.29 µM | 0.306 µM | 7.24 µM | 0.713 µM | 15.2 | – | – | 0.629 µM | 17.1 | 0.309 | 3.3 µM | 0.387 | 6.51 | 0.216 | 0.567 | 0.523 | 4.91 µM | 1.15 | 13.3
